The values that follow come from US8618154B2, “LXR modulators” (Bristol-Myers Squibb Company, priority 2009, dated 2013).

Molecules are shown by their SMILES. pEC50: −log10 of the molar value.

Series [1] deals with ABCA1 gene expression. Kind of series: Human whole blood assay (hWBA), ABCA1 mRNA induction. Format: cell-based. As to conditions: for Emax: Homo sapiens, 4 h, percent of reference pan agonist (maximal activity defined as 100%), read-out: hWBA hABCA1 L30 Max P (%); for pEC50: human whole blood, 4 hours, ABCA1 mRNA normalized to L30, read-out: hWBA hABCA1 L30 EC50. The method, then:
Human whole blood was collected in EDTA containing tubes and 0.5 mL aliquots were immediately mixed in a 96 well block with the appropriate serial dilution of test compound, in 0.5% DMSO. Compounds were incubated with blood at 37° C. with constant rocking for 4 hours. After incubation, cells were lysed in ABI Nucleic Acid Purification Lysis Solution (Applied Biosystems catalog #4305895) and frozen at −80° C. Following cell lysis, total RNA was purified using an ABI 6100 RNA prep station according to the protocol provided by the manufacturer. cDNAs were synthesized, and mRNAs were quantitated using SYBR-Green Quantitative PCR (Q-PCR) on an ABI Prism 7900HT Sequence Detection System and reagents from Quanta Bioscience Inc (Quanta Bioscience catalog #95047 and 95055).
The quantity of each mRNA was determined by the ΔΔCT method (Michael W. Pfaffl. A new mathematical model for relative quantification in real-time RT-PCR. Nucleic Acids Research, 2001, Vol. 29, No. 9 e45) and normalized to the quantity of two control mRNAs, i.e. ribosomal protein L-30 (L-30) and beta-2-microglobulin (B2M). The induction of ABCA1 and ABCG1 by test compound was graphed as a percent of the reference compound, 2-(4-(5-(5-cyano-1-(2,4-difluorobenzyl)-6-oxo-4-(trifluoromethyl)-1,6-dihydropyridin-2-yl)thiophen-2-yl)-3-methylphenyl)acetic acid, and potency (EC50) and activity (% MAX) were calculated by fitting a sigmoidal response curve as a function of log transformed compound concentration using XLFit software according to the equation y=A+((B−A)/(1+((C/x)^D))).

A short description of series [2]: High throughput metabolic stability in human microsomes. Format: in vitro ADME. As to conditions: parent compound remaining at 10 minutes, human liver microsomes. The method, then: The metabolic stability assay evaluates CYP-mediated metabolic stability in vitro using Human liver microsomes after a ten-minute incubation.
Test compound is received as a 3.5 mM stock solution in 100 percent DMSO. Compound is diluted to create a 50 μM acetonitrile (ACN) solution containing 1.4% DMSO, which is then used as a 100× stock for incubation with human liver microsomes. Each compound is tested in duplicate. Compound, NADPH and liver microsome solutions are combined for incubation in three steps: • 1) 152 μl of liver microsome suspension, protein concentration of 1.1 mg/ml in 100 mM NaPi, pH 7.4, 5 mM MgCl2 buffer, is pre-warmed at 37° C. • 2) 1.7 μl of 50 μM compound (98.6% ACN, 1.4% DMSO) is added to the same tube and pre-incubated at 37° C. for 5 minutes. • 3) The reaction is initiated by the addition of 17 μl of pre-warmed 10 mM NADPH solution in 100 mM NaPi, pH 7.4.
Reaction components are mixed well, and 75 μl are immediately transferred into 150 μl quench/stop solution (zero-time point, T0). Reactions are incubated at 37° C. for 10 minutes and then an additional 75 μl aliquot is transferred into 150 μl quench solution. Acetonitrile containing 100 μM DMN (a UV standard for injection quality control), is used as the quench solution to terminate metabolic reactions.
Quenched mixtures are centrifuged at 1500 rpm (˜500× g) in an Allegra X-12 centrifuge, SX4750 rotor (Beckman Coulter Inc., Fullerton, Calif.) for fifteen minutes to pellet denatured microsomes. A volume of 90 μl of supernatant extract, containing the mixture of parent compound and its metabolites, is then transferred to a separate 96-well plate for UV-LC/MS-MS analysis to determine the per cent of parent compound that is remaining in the mixture.
The mass spectrometric conditions obtained from automated infusion are used to analyze incubation samples from the Metabolic Stability assay. The injection volume is 5 μl and the flow rate is 0.8 ml/min. The gradient used is show in the table below. All samples are injected with the gradient using mobile phase A and B first. If necessary (for instance, for chromatographic reasons), samples are re-injected with the same gradient, but using mobile phase C and D. All LC-MS/MS analysis parameters are captured electronically in the raw data files.
Peak integration is performed with the Xcalibur™ software. The percent remaining calculation is performed by comparing the LC-MS/MS peak areas from the T10minute samples to those from the T0minute samples for each compound.

The pEC50 is −log10 of the EC50, conventionally taken in molar units. Consider `CC(C)(O)c1cn(-c2ccc(-c3cccc(S(C)(=O)=O)c3)cc2)c(C(C)(C)c2ccccc2Cl)n1` [Compound No. 19, Table 1, WO 2007/002563, reference compound], for which, in series [1], the Emax amounted to 55% and the negative logarithm of the EC50 (pEC50) is below 6.00. Further, the “Human Microsome % Remaining” value in series [2] is recorded as above 80%.
As for `CC(C)(O)c1cn(-c2ccc(-c3cc(F)c(CO)c(S(C)(=O)=O)c3)cc2)c(C(C)(C)c2ccccc2F)n1` [Example 1, 2-(1-(3′-fluoro-4′-(hydroxymethyl)-5′-(methylsulfonyl)biphenyl-4-yl)-2-(2-(2-fluorophenyl)propan-2-yl)-1H-imidazol-4-yl)propan-2-ol], in series [1], the Emax was 28% and the negative logarithm of the EC50 (pEC50) was above 7.00. For the same compound, the “Human Microsome % Remaining” value in series [2] is recorded as above 80%.
Take `Cc1cc(-c2cc(F)c(CO)c(S(C)(=O)=O)c2)ccc1-n1cc(C(C)(C)O)nc1C(C)(C)c1c(F)cccc1Cl` [Example 2, 2-(2-(2-(2-chloro-6-fluorophenyl)propan-2-yl)-1-(3′-fluoro-4′-(hydroxymethyl)-3-methyl-5′-(methylsulfonyl)biphenyl-4-yl)-1H-imidazol-4-yl)propan-2-ol]: in series [1], the Emax is 18% and the pEC50 was above 7.00. In addition, the “Human Microsome % Remaining” value in series [2] is reported as above 80%.
Taken in the same sequence, the figures for `CC(C)(O)c1cn(-c2ccc(-c3cc(F)c(CO)c(S(C)(=O)=O)c3)cc2Cl)c(C(C)(C)c2c(Cl)cccc2Cl)n1` [Example 3, 2-(1-(3-chloro-3′-fluoro-4′-(hydroxymethyl)-5′-(methylsulfonyl)biphenyl-4-yl)-2-(2-(2,6-dichlorophenyl)propan-2-yl)-1H-imidazol-4-yl)propan-2-ol] were 16%, above 7.00 and above 80%.
`CC(C)(O)c1cn(-c2ccc(-c3cc(F)c(CO)c(S(C)(=O)=O)c3)cc2)c(C(C)(C)c2cccc(F)c2Cl)n1` [Example 4, 2-(2-(2-(2-chloro-3-fluorophenyl)propan-2-yl)-1-(3′-fluoro-4′-(hydroxymethyl)-5′-(methylsulfonyl)biphenyl-4-yl)-1H-imidazol-4-yl)propan-2-ol]: in series [1], the Emax stood at 34% and the pEC50 was above 7.00. Moreover, the “Human Microsome % Remaining” value in series [2] is recorded as above 80%.
As for `CC(C)(O)c1cn(-c2ccc(-c3cc(F)c(CO)c(S(C)(=O)=O)c3)cc2)c(C(C)(C)c2c(Cl)cccc2Cl)n1` [Example 5, 2-(2-(2-(2,6-dichlorophenyl)propan-2-yl)-1-(3′-fluoro-4′-(hydroxymethyl)-5′-(methylsulfonyl)biphenyl-4-yl)-1H-imidazol-4-yl)propan-2-ol], in series [1], the Emax was determined as 43% and the pEC50 was above 7.00. In addition, in series [2], the “Human Microsome % Remaining” value is given as above 80%.
On to `CC(C)(O)c1cn(-c2ccc(-c3cc(F)c(CO)c(S(C)(=O)=O)c3)cc2F)c(C(C)(C)c2ccccc2Cl)n1` [Example 6, 2-(2-(2-(2-Chloro-phenyl)propan-2-yl)-1-(3,3′-difluoro-4′-hydroxymethyl-5′-(methylsulfonyl)biphenyl-4-yl)-1H-imidazol-4-yl)-propan-2-ol], for which, in series [1], the Emax is 35% and the pEC50 is above 7.00. Moreover, the “Human Microsome % Remaining” value in series [2] is recorded as above 80%.
In the case of `CC(C)(O)c1cn(-c2ccc(-c3cc(F)c(CO)c(S(C)(=O)=O)c3)cc2F)c(C(C)(C)c2c(F)cccc2Cl)n1` [Example 7, 2-(2-(2-(2-chloro-6-fluorophenyl)propan-2-yl)-1-(3,3′-difluoro-4′-(hydroxymethyl)-5′-(methylsulfonyl)biphenyl-4-yl)-1H-imidazol-4-yl)propan-2-ol], in series [1], the Emax was determined as 33% and the pEC50 is above 7.00. The “Human Microsome % Remaining” value in series [2] was above 80%.
In the case of `CC(C)(O)c1cn(-c2ccc(-c3cc(F)c(CO)c(S(C)(=O)=O)c3)cc2F)c(C(C)(C)c2ccccc2F)n1` [Example 8, 2-{1-(3,3′-Difluoro-4′-hydroxymethyl-5′-methanesulfonyl-biphenyl-4-yl)-2-[2-(2-fluorophenyl)propan-2-yl]-1H-imidazol-4-yl}-propan-2-ol], in series [1], the Emax was determined as 23% and the pEC50 is above 7.00. In addition, the “Human Microsome % Remaining” value in series [2] is reported as above 80%.
Take `CC(C)(O)c1cn(-c2ccc(-c3cc(F)c(CO)c(S(C)(=O)=O)c3)cc2F)c(C(C)(C)c2c(Cl)cccc2Cl)n1` [Example 9, 2-(2-(2-(2,6-dichlorophenyl)propan-2-yl)-1-(3,3′-difluoro-4′-(hydroxymethyl)-5′-(methylsulfonyl)biphenyl-4-yl)-1H-imidazol-4-yl)propan-2-ol]: in series [1], the Emax stood at 28% and the pEC50 was above 7.00. The “Human Microsome % Remaining” value in series [2] is above 80%.
For the compound `CC(C)(O)c1cn(-c2ccc(-c3cc(F)c(CO)c(S(C)(=O)=O)c3)cc2F)c(Cc2ccc(Cl)cc2Cl)n1` [Example 11, 2-(2-(2,4-dichlorobenzyl)-1-(3,3′-difluoro-4′-(hydroxymethyl)-5′-(methylsulfonyl)biphenyl-4-yl)-1H-imidazol-4-yl)propan-2-ol], in series [1], the Emax came to 16% and the pEC50 was above 7.00. In addition, the “Human Microsome % Remaining” value in series [2] is given as above 80%.
The like results for `CC(C)(O)c1cn(-c2ccc(-c3cc(F)c(CO)c(S(C)(=O)=O)c3)cc2F)c(Cc2ccccc2C(F)(F)F)n1` [Example 12, 2-(1-(3,3′-difluoro-4′-(hydroxymethyl)-5′-(methylsulfonyl)biphenyl-4-yl)-2-(2-(trifluoromethyl)benzyl)-1H-imidazol-4-yl)propan-2-ol] were, in that order, 32%, above 7.00 and above 80%.
Taken in the same sequence, the figures for `CC(C)(O)c1cn(-c2ccc(-c3cc(F)c(CO)c(S(C)(=O)=O)c3)cc2Cl)c(Cc2ccc(F)cc2Cl)n1` [Example 13, 2-(1-(3-chloro-3′-fluoro-4′-(hydroxymethyl)-5′-(methylsulfonyl)biphenyl-4-yl)-2-(2-chloro-4-fluorobenzyl)-1H-imidazol-4-yl)propan-2-ol] were 50%, above 7.00 and above 80%.
Regarding `CC(C)(O)c1cn(-c2ccc(-c3cc(F)c(CO)c(S(C)(=O)=O)c3)cc2F)c(Cc2ccc(F)cc2Cl)n1` [Example 14, 2-(2-(2-chloro-4-fluorobenzyl)-1-(3,3′-difluoro-4′-(hydroxymethyl)-5′-(methylsulfonyl)biphenyl-4-yl)-1H-imidazol-4-yl)propan-2-ol], in series [1], the Emax is 24% and the negative logarithm of the EC50 (pEC50) is above 7.00. The “Human Microsome % Remaining” value in series [2] is above 80%.
With `CC(C)(O)c1cn(-c2ccc(-c3cc(F)c(CO)c(S(C)(=O)=O)c3)cc2)c(Cc2ccc(Cl)cc2Cl)n1` [Example 15, 2-(2-(2,4-dichlorobenzyl)-1-(3′-fluoro-4′-(hydroxymethyl)-5′-(methylsulfonyl)biphenyl-4-yl)-1H-imidazol-4-yl)propan-2-ol], in series [1], the Emax came out at 47% and the pEC50 was above 7.00. In series [2], the “Human Microsome % Remaining” value was above 80%.
For the compound `CC(C)(O)c1cn(-c2ccc(-c3cc(F)c(CO)c(S(C)(=O)=O)c3)cc2F)c(Cc2ccccc2F)n1` [Example 16, 2-(1-(3,3′-difluoro-4′-(hydroxymethyl)-5′-(methylsulfonyl)biphenyl-4-yl)-2-(2-fluorobenzyl)-1H-imidazol-4-yl)propan-2-ol], in series [1], the Emax was 41% and the negative-log EC50 (pEC50) is above 7.00. Moreover, the “Human Microsome % Remaining” value in series [2] is on record as above 80%.
